Results taken from patent US11292803B2, “Bioreducible N-oxide-based probes for imaging of hypoxia” (THE BOARD OF TRUSTEES OF THE UNIVERSITY OF ILLINOIS, priority 2018, dated 2022).

Experiments:
[1] = Chemostability under ambient light and temperature; type: physicochemical; details: 10 μM solution, up to 5 days
Experimental: FIG. 11. Fluorescence intensity (Ex.=670 nm) of HyP-1 (2 μM) at the indicated time points during extended incubation in 0.1 M potassium phosphate buffer (pH 7.4, 0.1% v/v CrEL) under ambient light and temperature. Represented as mean±SD (n=3).
(§1) In addition to Fe(II), the response of HyP-1 to a variety of alkali, alkaline earth and transition metals was also determined. […] To further evaluate the stability of HyP-1, a 10 μM solution of the probe was exposed to ambient light and temperature for up to 5 days. Additionally, a 10 μM solution of HyP-1 supplemented with human plasma was incubated at 37° C. for 3 hours. […] As mentioned previously, a major limitation of 2-nitroimidazole-based hypoxia probes is their susceptibility to oxygen-independent reduction via two-electron processes, such as by bacterial nitroreductases. […] Finally, the photostability of both HyP-1 and red-HyP-1 was evaluated via continuous PA image acquisition at 770 nm over the course of 1 hour.

rat liver microsomes = test: PA response after rat liver microsome incubation, tissue-mimicking phantom; type: biochemical; details: 2 h incubation with RLM, quenched with acetonitrile
Experimental: FIG. 4. Hypoxia-selective response of HyP-1 in vitro. […] Dashed lines indicate positioning of FEP tubes.
Tissue phantoms were prepared by suspending agarose (4 g) in a solution of 2% milk (2 mL) and deionized H2O (78 mL). The suspension was then heated in a microwave oven until a viscous gel was produced (30-50 seconds). The gel was transferred to a mold made by drilling holes through a 50 mL centrifuge tube and placing FEP tubes (0.08″ diameter) through the holes to create spaces for samples. After cooling the gel for a minimum of 3 hours, the solidified phantom was removed from the mold and cut with a razor blade such that the distance from the sample holes to the phantom's edges was 1.0 cm. To image samples, sample solutions were pipetted into FEP tubing (0.08″ diameter, cut to 10 cm long) which was inserted into the phantom and sealed by folding over the ends and securing with additional tubing (0.12″ diameter, cut to 5 mm long). Images were acquired using the Step and Shoot mode with 120 angles and 10 pulses per angle. Data was analysed using OsiriX Lite software (Version 8.0). Thick slab processing was used to visualize accumulated signal over 5 mm. ROIs of equal area were drawn around areas containing signal, and mean PA signal in each ROI was recorded.

4T1 cells = test: Ratiometric fluorescence of cells, IVIS Spectrum; type: cell-based, murine; details: 4T1 cells, 5 μM HyP-1, 4 hours, IVIS Spectrum
Experimental: Ratiometric fluorescence imaging was also performed on 4T1 cells cultured in 6-well plates using an IVIS Spectrum imaging system. Cells were stained with a 5 μM solution of HyP-1 and incubated in either normoxic or hypoxic conditions for 4 hours (FIG. 5c). […] To further verify the in vitro results and determine the cellular factors responsible for HyP-1 reduction, cells were also stained with HyP-1 solutions containing either BIPY or DPI at multiple concentrations and incubated under hypoxic conditions.
Authenticated 4T1 cells were purchased from ATCC. Cells were grown in RPMI 1640 medium supplemented with 10% fetal bovine serum. Cells were cultured at 37° C. in 5% CO2 and 20% 02 for normoxic conditions. Hypoxic cell culture was performed by incubating cells in a sealed container with a Mitsubishi AnaeroPack™ anaerobic gas generator. Hypoxic conditions were verified with the use of a Mitsubishi RT Anaero-Indicator.
For cellular imaging using the IVIS Spectrum imaging system, cells were plated in a 6-well plate at an initial density of 1.7×10^4 cells/mL and allowed to grow until 60-80% confluent (approximately 3 days). Media was removed and cells were washed with PBS. A […] solution of HyP-1 in serum-free medium was added, and cells were incubated under normoxic or hypoxic conditions for 4 hours. For BIPY and DPI experiments, the staining solution was supplemented with the compound at the appropriate concentration, and ratiometric turn-on was reported relative to a vehicle control. Images were obtained using excitation and emission filter sets of 675/720 nm and 745/800 nm. Regions of interest (ROIs) were drawn around cell-containing wells, and ratiometric signal was calculated by determining the ratio of radiant efficiency corresponding to 800 nm and 720 nm emissions.

E. coli cell lysates = test: Incubation with bacterial cell lysates; type: biochemical; details: 37° C., 2 h
Experimental: FIG. 15. […] For the nitroreductase experiment, HyP-1 (2 μM) was incubated in the presence of nitroreductase (0.5 μg/mL) and NADH (100 μM) in 0.1 M potassium phosphate buffer (pH 7.4) at 37° C. for 2 h. For the bacterial experiment, bacteria were grown overnight, and cells were lysed via sonication. The suspension was centrifuged at 4000 rpm for 10 min, and the supernatant was removed. HyP-1 (2 μM) was incubated with cell lysate solution (1 mL) at 37° C. for 2 h.
as §1

4T1 tumour allografts = test: In vivo PA imaging of hypoxic tumour model; set-up: species or system BALB/c mice; details: tail vein injection 0.3 mg/kg; 770 nm
Experimental: Next, attention was turned to the application of HyP-1 for hypoxia detection using PA imaging. HyP-1 (50 μL, 0.3 mg/kg) was administered to tumour-bearing mice intravenously via tail vein injection, and PA images of both the tumour-bearing and control flanks were acquired at 1, 3 and 5 hours following injection. […] The 3D-reconstructions of the PA images enabled visualization of specific areas within the tumour where signal was highest, a significant improvement compared to the minimally resolved signal obtained using fluorescence imaging (FIG. 6b). It was hypothesized that these areas of high intensity correlate with the highest concentrations of red-HyP-1, and therefore with regions of most severe hypoxia.
All in vivo imaging experiments were performed with the approval of the Institutional Animal Care and Use Committee of the University of Illinois at Urbana-Champaign, following the principles outlined by the American Physiological Society on research animal use. […]
Prior to imaging, hair was removed from the lower body half by shaving and treating with a topical hair removal cream. […] Data was analysed using OsiriX software. […] ROIs of equal area were drawn to include all visible signal in the image, and mean PA signal in each ROI was recorded. Change in PA signal was calculated by subtracting signal from images taken prior to injection from those at given time points.

CC[N+]([O-])(CC)c1ccc(-c2cc(-c3ccccc3)c3n2[B-](F)(F)[N+]2=C(c4ccc(OC)cc4)C=C(c4ccccc4)C2=N3)cc1 [HyP-1, 4-(5,5-difluoro-7-(4-methoxyphenyl)-1,9-diphenyl-5H-5λ^4,6λ^4-dipyrrolo[1,2-c:2′,1′-f][1,3,5,2]triazaborinin-3-yl)-N,N-diethylaniline oxide]
decomposition under ambient light and temperature [1]: no substantial decomposition
PA signal (770 nm), hypoxic reaction versus normoxic (rat liver microsomes): 4 fold
ratiometric response, hypoxic versus normoxic wells (4T1 cells): 2.5 fold
conversion to red-HyP-1 (E. coli cell lysates): minimal conversion
PA signal increase in control flank (4T1 tumour allografts): no increase
mean PA signal increase in tumour tissue (4T1 tumour allografts): 20.5 a.u.
